± gives the standard deviation of the averaged measurements.
Legend:
Conditions in all cases: exposure: 5-72 hpf
[1] = test system: Danio rerio embryo (fli1:egfp); experiment: arterial (dorsal aorta) circulation score at 72 hpf (normalized DA-Max (arbitrary units)); higher = more circulation
Procedure: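 fli1:egfp zebrafish embryos exposed 5-72 hpf to chemical (0.05-50 µM, 0.1% DMSO); arterial circulation at 72 hpf quantified from stream acquisitions of the dorsal aorta by FFT-based analysis (DA-Max, normalized dorsal aorta signal); only concentrations passing survival/body-length criteria analyzed.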

[2] = test system: Danio rerio embryo (fli1:egfp); experiment: intersegmental vessel area normalized to body length at 72 hpf (ISV area / body length (normalized units)); higher = more vessel area
Procedure: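 fli1:egfp zebrafish embryos exposed 5-72 hpf to chemical (0.05-50 µM, 0.1% DMSO); intersegmental vessel (ISV) eGFP area quantified by MetaXpress journal at 72 hpf and normalized to body length.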

[3] = test system: Danio rerio embryo (fli1:egfp); experiment: body length at 72 hpf (µm); higher = longer body (less growth inhibition)
Procedure: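 Transgenic fli1:egfp zebrafish embryos (one per well, 384-well plate) exposed statically from 5 to 72 hpf at 28 °C to chemical (0.05-50 µM, 0.1% DMSO); at 72 hpf anesthetized and imaged on ImageXpress; body length of live, hatched, correctly oriented embryos measured by automated MetaXpress journal. Dead/unhatched/misoriented embryos have no value.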

[4] = test system: Danio rerio embryo (fli1:egfp); experiment: pericardial area at 72 hpf (image area units (not stated)); higher = larger pericardial area (edema)
Procedure: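 fli1:egfp zebrafish embryos exposed 5-72 hpf to chemical (0.05-50 µM, 0.1% DMSO); pericardial area at 72 hpf measured by semi-automated MetaXpress journal (increase indicates edema).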

[5] = test system: Danio rerio embryo (fli1:egfp); experiment: heart rate at 72 hpf (beats per minute); higher = faster heart rate
Procedure: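 fli1:egfp zebrafish embryos exposed 5-72 hpf to chemical (0.05-50 µM, 0.1% DMSO) in 384-well plates; heart rate at 72 hpf quantified from stream acquisitions by semi-automated MetaXpress journal (peak counting); only embryos in concentrations passing survival/body-length criteria analyzed.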

## Cc1nn(-c2cc(NS(C)(=O)=O)c(Cl)cc2Cl)c(=O)n1C(F)F [Sulfentrazone]
[1]; 0.05 µM
  arterial: 11.4 ± 5
[1]; 0.098 µM
  arterial: 11.7 ± 3.6
[1]; 0.195 µM
  arterial: 12.6 ± 4.1
[1]; 0.39 µM
  arterial: 9.83 ± 4.8
[1]; 0.78 µM
  arterial: 11.3 ± 4.1
[1]; 1.56 µM
  arterial: 8.91 ± 3.8
[1]; 3.125 µM
  arterial: 8.71 ± 3.6
[1]; 6.25 µM
  arterial: 8.86 ± 12
[1]; 12.5 µM
  arterial: 7.1 ± 2.4
[1]; 25 µM
  arterial: 11.1 ± 17
[1]; 50 µM
  arterial: 5.34 ± 1.9
[2]; 0.05 µM
  intersegmental vessel area normalized: 77.2 ± 24
[2]; 0.098 µM
  intersegmental vessel area normalized: 76.8 ± 23
[2]; 0.195 µM
  intersegmental vessel area normalized: 71.2 ± 22
[2]; 0.39 µM
  intersegmental vessel area normalized: 72.4 ± 22
[2]; 0.78 µM
  intersegmental vessel area normalized: 78.9 ± 21
[2]; 1.56 µM
  intersegmental vessel area normalized: 72.4 ± 22
[2]; 3.125 µM
  intersegmental vessel area normalized: 71.4 ± 20
[2]; 6.25 µM
  intersegmental vessel area normalized: 69.7 ± 22
[2]; 12.5 µM
  intersegmental vessel area normalized: 74.8 ± 20
[2]; 25 µM
  intersegmental vessel area normalized: 71.2 ± 17
[2]; 50 µM
  intersegmental vessel area normalized: 71.2 ± 24
[3]; 0.05 µM
  body length at 72 hpf: 3000 ± 140
[3]; 0.098 µM
  body length at 72 hpf: 2990 ± 190
[3]; 0.195 µM
  body length at 72 hpf: 2990 ± 150
[3]; 0.39 µM
  body length at 72 hpf: 2970 ± 120
[3]; 0.78 µM
  body length at 72 hpf: 2920 ± 230
[3]; 1.56 µM
  body length at 72 hpf: 2930 ± 140
[3]; 3.125 µM
  body length at 72 hpf: 2970 ± 150
[3]; 6.25 µM
  body length at 72 hpf: 3030 ± 100
[3]; 12.5 µM
  body length at 72 hpf: 3020 ± 93
[3]; 25 µM
  body length at 72 hpf: 2970 ± 110
[3]; 50 µM
  body length at 72 hpf: 2950 ± 180
[4]; 0.05 µM
  pericardial area at 72 hpf: 17900 ± 6200
[4]; 0.098 µM
  pericardial area at 72 hpf: 16100 ± 3600
[4]; 0.195 µM
  pericardial area at 72 hpf: 16300 ± 3600
[4]; 0.39 µM
  pericardial area at 72 hpf: 15600 ± 3200
[4]; 0.78 µM
  pericardial area at 72 hpf: 16100 ± 4200
[4]; 1.56 µM
  pericardial area at 72 hpf: 18600 ± 4900
[4]; 3.125 µM
  pericardial area at 72 hpf: 17200 ± 4300
[4]; 6.25 µM
  pericardial area at 72 hpf: 20400 ± 5400
[4]; 12.5 µM
  pericardial area at 72 hpf: 18700 ± 4200
[4]; 25 µM
  pericardial area at 72 hpf: 21700 ± 5200
[4]; 50 µM
  pericardial area at 72 hpf: 21200 ± 5300
[5]; 0.05 µM
  heart rate at 72 hpf: 156 ± 15
[5]; 0.098 µM
  heart rate at 72 hpf: 158 ± 12
[5]; 0.195 µM
  heart rate at 72 hpf: 158 ± 14
[5]; 0.39 µM
  heart rate at 72 hpf: 157 ± 12
[5]; 0.78 µM
  heart rate at 72 hpf: 161 ± 11
[5]; 1.56 µM
  heart rate at 72 hpf: 163 ± 12
[5]; 3.125 µM
  heart rate at 72 hpf: 162 ± 13
[5]; 6.25 µM
  heart rate at 72 hpf: 167 ± 24
[5]; 12.5 µM
  heart rate at 72 hpf: 170 ± 21
[5]; 25 µM
  heart rate at 72 hpf: 169 ± 16
[5]; 50 µM
  heart rate at 72 hpf: 173 ± 30
